PubChem BioAssay AID1963858 (Molecular Pharmacology Branch, DTP, NCI, 2024)

Test system: HOP-62 multicell spheroids with HUVEC/MSC, viability
Test: Anticancer human tumor HOP-62 cell line growth inhibition [KRAS2];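 note: viability read after a week of compound exposure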;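 for viability, T/C: 100% = DMSO vehicle-treated spheroids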
Conditions: for IC50: curve of first compound; for viability, T/C: stronger effect = lower value
Method in brief: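 KRAS-mutant tumor cells were grown as spheroids with HUVEC endothelial cells and human MSCs as stroma. Targeted agents were tested alone and with KRAS pathway inhibitors. Doses started at or near clinical Cmax, or 10 microM, descending half-log.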

Compound `CC(=O)Nc1cccc(-n2c(=O)n(C3CC3)c(=O)c3c(Nc4ccc(I)cc4F)n(C)c(=O)c(C)c32)c1` + C=CC(=O)N1CCN(c2nc(OCC3CCCN3C)nc3c2CCN(c2cccc4cccc(C)c24)C3)CC1CC#N has an IC50 (second compound 0.0316 µM) of 1490 pM, an IC50 (second compound 0.1 µM) of 1010 pM and an IC50 (second compound 0.316 µM) of 406 pM. The IC50 (second compound 1 µM) was under 100 pM, the IC50 (second compound 3.16 µM) was under 100 pM and the viability, T/C (second compound 0.0316 µM, first compound 0.0001 µM) was 83.2%. It also gave a viability, T/C (second compound 0.0316 µM, first compound 0.000316 µM) of 75%, a viability, T/C (second compound 0.0316 µM, first compound 0.001 µM) of 56.2% and a viability, T/C (second compound 0.0316 µM, first compound 0.00316 µM) of 38.9%. It also gave a viability, T/C (second compound 0.0316 µM, first compound 0.01 µM) of 23.4%, a viability, T/C (second compound 0.0316 µM, first compound 0.0316 µM) of 25.5% and a viability, T/C (second compound 0.1 µM, first compound 0.0001 µM) of 64.8%. For the same compound, the viability, T/C (second compound 0.1 µM, first compound 0.000316 µM) was 60.9%, the viability, T/C (second compound 0.1 µM, first compound 0.001 µM) was 50.5% and the viability, T/C (second compound 0.1 µM, first compound 0.00316 µM) was 27.4%. It also gave a viability, T/C (second compound 0.1 µM, first compound 0.01 µM) of 19.4%, a viability, T/C (second compound 0.1 µM, first compound 0.0316 µM) of 24.3% and a viability, T/C (second compound 0.316 µM, first compound 0.0001 µM) of 52.3%. For the same compound, the viability, T/C (second compound 0.316 µM, first compound 0.000316 µM) was 53.6%, the viability, T/C (second compound 0.316 µM, first compound 0.001 µM) was 40% and the viability, T/C (second compound 0.316 µM, first compound 0.00316 µM) was 18.4%. It also gave a viability, T/C (second compound 0.316 µM, first compound 0.01 µM) of 15.7%, a viability, T/C (second compound 0.316 µM, first compound 0.0316 µM) of 17.3% and a viability, T/C (second compound 1 µM, first compound 0.0001 µM) of 34.4%. For the same compound, the viability, T/C (second compound 1 µM, first compound 0.000316 µM) was 28.1%, the viability, T/C (second compound 1 µM, first compound 0.001 µM) was 18% and the viability, T/C (second compound 1 µM, first compound 0.00316 µM) was 15%. The viability, T/C (second compound 1 µM, first compound 0.01 µM) was 12.5%, the viability, T/C (second compound 1 µM, first compound 0.0316 µM) was 12.5% and the viability, T/C (second compound 3.16 µM, first compound 0.0001 µM) was 18.2%. For the same compound, the viability, T/C (second compound 3.16 µM, first compound 0.000316 µM) was 1.3%, the viability, T/C (second compound 3.16 µM, first compound 0.001 µM) was 9.7% and the viability, T/C (second compound 3.16 µM, first compound 0.00316 µM) was 12.7%. For the same compound, the viability, T/C (second compound 3.16 µM, first compound 0.01 µM) was 1.72% and the viability, T/C (second compound 3.16 µM, first compound 0.0316 µM) was 1.33%.
